{"source": "patent US6822146B2", "about": "“Sulfonylurea-tolerant sunflower line M7” (priority 2000, dated 2004)", "key": {"[1]": {"test_system": "mutants originating from M11 and M12", "settings": "Test G rates", "from_the_text": "This test involved sulfonylurea-resistant sunflower progeny BC2-M3M11 and BC2-M3M12, derived from M11 and M12, respectively. Also, a sulfonylurea-susceptible hybrid, H89A×RHA274, was included for comparison. Plants were sprayed with formulated herbicides at the 4-leaf stage. The efficacy of the treatments on the sunflowers was visually rated 4 weeks after application, using a scale where 0 means no control of the sunflowers, 85 means sufficient efficacy level to stop plants from flowering and propagating, and 100 means a complete destruction of the mutants.\nWeed control in sugar beet requires 2-3 herbicide applications per season to efficiently control weeds in this slow growing crop."}, "BC2-M3M12": {"test_system": "BC2-M3M12", "test": "Test G control of volunteer sunflower, BC2-M3M12", "assay_type": "in vivo", "settings": "rated 4 weeks after application, scale 0-100"}, "[2]": {"test_system": "H89A × RHA274 (sulfonylurea-susceptible hybrid)", "test": "Test G control of volunteer sunflower, H89A × RHA274", "assay_type": "in vivo", "settings": "rated 4 weeks after application, scale 0-100"}, "BC2-M3M11": {"test_system": "BC2-M3M11", "test": "Test G control of volunteer sunflower, BC2-M3M11", "assay_type": "in vivo", "settings": "rated 4 weeks after application, scale 0-100"}, "GA-M4M11 × RHA274": {"test_system": "GA-M4M11 × RHA274", "test": "Test A field trial, phytotoxicity, variety D", "assay_type": "in vivo, sunflower", "settings": "variety D; 30 g a.i./ha post-emergence", "from_the_text": "(§1) To generate the hybrids C, D and E, the fourth generation self-pollinated maintainer mutant lines M4M12, M4M11 and M4M7 were chemically sterilized by applying at the bud “star” flower stage a small amount of gibberellic acid solution to sterilize the pollen according to the general method described in Sunflower Science Technology, J. F. Carter ed. (Number 19 in the series “Agronomy”) pp. 339-386. This treatment enables maintainer plants to behave as CMS inbred lines and allows the production of heterozygous resistant hybrids, with the herbicide resistant source coming from the female side. Such crosses allowed evaluating the sexual effect of the mutation source when introduced on the female side of a cross as described in crosses C, D and E versus the male side of a cross as described in crosses F, G and H. Labels I, J and K identify third generation CMS mutant lines crossed with fourth generation maintainer lines to maintain the highly heritable mutant trait in a male sterile homozygous resistant environment. One skilled in sunflower breeding art understands the meaning of such crosses.\n(§2) A rating of 0% phytotoxicity means no crop injury."}, "BC3-M4M7": {"test_system": "BC3-M4M7", "test": "Test A field trial, phytotoxicity, variety K", "assay_type": "in vivo, sunflower", "settings": "variety K; 30 g a.i./ha post-emergence", "from_the_text": "as §1, §2"}, "BC4-M5M12 × PHA155": {"test_system": "BC4-M5M12 × PHA155", "test": "Test C field phytotoxicity, BC4-M5M12 × PHA155", "assay_type": "in vivo, sunflower", "from_the_text": "as §2"}, "BC3-M4M12": {"test_system": "BC3-M4M12", "test": "Test A field trial, phytotoxicity, variety I", "assay_type": "in vivo, sunflower", "settings": "variety I; 30 g a.i./ha post-emergence", "from_the_text": "as §1, §2"}, "[3]": {"test_system": "Homozygous resistant inbred lines, BC3-M4M12 (I), BC3-M4M11 (J) and BC3-M4M7 (K)", "test": "Test A summary, homozygous resistant inbred lines", "settings": "Test A application rates", "protocol": "In a small field trial, the sunflower varieties described in Table 4 were sprayed post-emergence with a variety of sulfonylurea herbicide treatments.\nBroadcast post-emergence applications of formulated sulfonylurea herbicides were performed at the 6-leaf development stage using four randomly distributed replications. Application rates were chosen to match the usual use rates of these herbicides in the crops they are registered in Europe. All herbicides except for metsulfuron-methyl were sprayed in combination with Citowet® non-ionic ethoxylated alcohol at 0.25% volume of formulated product per volume of water applied per hectare.\nThe evaluation of the maximum (i.e. peak) injury to sunflower varieties by sulfonylurea herbicides was measured by visual ratings, which are listed in Table 5. A rating of 0% phytotoxicity means no crop injury. […] A rating of 100% means the complete destruction of all plants."}, "GA-M4M7 × RHA274": {"test_system": "GA-M4M7 × RHA274", "test": "Test A field trial, phytotoxicity, variety E", "assay_type": "in vivo, sunflower", "settings": "variety E; 30 g a.i./ha post-emergence", "from_the_text": "as §1, §2"}, "GA-M4M12 × RHA274": {"test_system": "GA-M4M12 × RHA274", "test": "Test A field trial, phytotoxicity, variety C", "assay_type": "in vivo, sunflower", "settings": "variety C; 30 g a.i./ha post-emergence", "from_the_text": "as §1, §2"}, "BC3-M4M11": {"test_system": "BC3-M4M11", "test": "Test A field trial, phytotoxicity, variety J", "assay_type": "in vivo, sunflower", "settings": "variety J; 30 g a.i./ha post-emergence", "from_the_text": "as §1, §2"}, "[4]": {"test_system": "Hybrid control: H89A × RHA274", "assay_type": "in vivo, sunflower", "settings": "variety A; 30 g a.i./ha post-emergence", "from_the_text": "as §1, §2"}, "H89A × M4M12": {"test_system": "H89A × M4M12", "assay_type": "in vivo, sunflower", "settings": "variety F; 30 g a.i./ha post-emergence", "from_the_text": "as §1, §2"}, "H89A × M4M11": {"test_system": "H89A × M4M11", "assay_type": "in vivo, sunflower", "settings": "variety G; 30 g a.i./ha post-emergence", "from_the_text": "as §1, §2"}, "[5]": {"test_system": "Inbred line control: H89A", "assay_type": "in vivo, sunflower", "settings": "variety B; 30 g a.i./ha post-emergence", "from_the_text": "as §1, §2"}, "H89A × M4M7": {"test_system": "H89A × M4M7", "assay_type": "in vivo, sunflower", "settings": "variety H; 30 g a.i./ha post-emergence", "from_the_text": "as §1, §2"}, "BC4-M5M7 × PHA155": {"test_system": "BC4-M5M7 × PHA155", "test": "Test C field phytotoxicity, BC4-M5M7 × PHA155", "assay_type": "in vivo, sunflower", "from_the_text": "as §2"}, "[6]": {"settings": "postemergence 18.75 g a.i./ha, 7 DAT"}, "[7]": {"settings": "postemergence 18.75 g a.i./ha, 15 DAT"}, "[8]": {"settings": "postemergence 18.75 g a.i./ha, 30 DAT"}, "[9]": {"settings": "postemergence 37.5 g a.i./ha, 7 DAT"}, "[10]": {"settings": "postemergence 37.5 g a.i./ha, 15 DAT"}, "[11]": {"settings": "postemergence 37.5 g a.i./ha, 30 DAT"}}, "data": [{"smiles": "COC(=O)Nc1cccc(OC(=O)Nc2cccc(C)c2)c1", "note": "[Phenmedipham]", "values": [{"measurement": "control of sulfonylurea-susceptible or sulfonylurea-resistant volunteer sunflowers", "setting": "[1]; phenmedipham alone or combined with triflusulfuron-methyl", "result": "ineffective alone"}, {"measurement": "Efficacy on BC2-M3M12", "setting": "BC2-M3M12; 240 g a.i./ha", "result": 7}, {"measurement": "Efficacy on H89A × RHA274", "setting": "[2]; 240 g a.i./ha", "result": 0}, {"measurement": "Efficacy on BC2-M3M11", "setting": "BC2-M3M11; 240 g a.i./ha", "result": 0}]}, {"smiles": "COc1cc(OC)nc(NC(=O)NS(=O)(=O)c2ncccc2C(=O)N(C)C)n1", "note": "[Nicosulfuron, nicosulfuron]", "values": [{"measurement": "Maximum Phytotoxicity", "setting": "GA-M4M11 × RHA274", "result": 13, "unit": "%"}, {"measurement": "Maximum Phytotoxicity", "setting": "BC3-M4M7", "result": 14, "unit": "%"}, {"measurement": "Phytotoxicity Rating After Treatment", "setting": "BC4-M5M12 × PHA155; [6]", "result": 28, "unit": "%"}, {"measurement": "Phytotoxicity Rating After Treatment", "setting": "BC4-M5M12 × PHA155; [7]", "result": 20, "unit": "%"}, {"measurement": "Phytotoxicity Rating After Treatment", "setting": "BC4-M5M12 × PHA155; [8]", "result": 18, "unit": "%"}, {"measurement": "Phytotoxicity Rating After Treatment", "setting": "BC4-M5M12 × PHA155; [9]", "result": 42, "unit": "%"}, {"measurement": "Phytotoxicity Rating After Treatment", "setting": "BC4-M5M12 × PHA155; [10]", "result": 52, "unit": "%"}, {"measurement": "Phytotoxicity Rating After Treatment", "setting": "BC4-M5M12 × PHA155; [11]", "result": 50, "unit": "%"}, {"measurement": "Maximum Phytotoxicity", "setting": "BC3-M4M12", "result": 8, "unit": "%"}, {"measurement": "tolerance of homozygous resistant lines compared with heterozygous hybrids", "setting": "[3]", "result": "the homozygous resistant lines were more tolerant"}, {"measurement": "tolerance of homozygous resistant inbred lines I, J, K", "setting": "[3]; triflusulfuron-methyl at 20 g a.i./ha", "result": "marginally tolerant"}, {"measurement": "Maximum Phytotoxicity", "setting": "GA-M4M7 × RHA274", "result": 13, "unit": "%"}, {"measurement": "Maximum Phytotoxicity", "setting": "GA-M4M12 × RHA274", "result": 12, "unit": "%"}, {"measurement": "Maximum Phytotoxicity", "setting": "BC3-M4M11", "result": 23, "unit": "%"}, {"measurement": "Maximum Phytotoxicity", "setting": "[4]", "result": 33, "unit": "%"}, {"measurement": "Maximum Phytotoxicity", "setting": "H89A × M4M12", "result": 15, "unit": "%"}, {"measurement": "Maximum Phytotoxicity", "setting": "H89A × M4M11", "result": 20, "unit": "%"}, {"measurement": "Maximum Phytotoxicity", "setting": "[5]", "result": 54, "unit": "%"}, {"measurement": "Maximum Phytotoxicity", "setting": "H89A × M4M7", "result": 16, "unit": "%"}, {"measurement": "Phytotoxicity Rating After Treatment", "setting": "BC4-M5M7 × PHA155; [6]", "result": 37, "unit": "%"}, {"measurement": "Phytotoxicity Rating After Treatment", "setting": "BC4-M5M7 × PHA155; [7]", "result": 40, "unit": "%"}, {"measurement": "Phytotoxicity Rating After Treatment", "setting": "BC4-M5M7 × PHA155; [8]", "result": 18, "unit": "%"}, {"measurement": "Phytotoxicity Rating After Treatment", "setting": "BC4-M5M7 × PHA155; [9]", "result": 57, "unit": "%"}, {"measurement": "Phytotoxicity Rating After Treatment", "setting": "BC4-M5M7 × PHA155; [10]", "result": 55, "unit": "%"}, {"measurement": "Phytotoxicity Rating After Treatment", "setting": "BC4-M5M7 × PHA155; [11]", "result": 50, "unit": "%"}]}, {"smiles": "O=C(O)COc1ccc(Cl)cc1Cl", "note": "[2,4-D, 2,4-dichlorophenoxyacetic acid]", "values": [{"measurement": "efficacy against the mutants", "setting": "[1]", "result": "completely-destroyed"}, {"measurement": "Efficacy on BC2-M3M12", "setting": "BC2-M3M12; 530 g a.i./ha", "result": 100}, {"measurement": "Efficacy on H89A × RHA274", "setting": "[2]; 530 g a.i./ha", "result": 100}, {"measurement": "Efficacy on BC2-M3M11", "setting": "BC2-M3M11; 530 g a.i./ha", "result": 100}]}]}
